Measurements reported in US9969709B2, “Guanidinobenzoic acid ester compound” (Takeda Pharmaceutical Company Limited, priority 2013, dated 2018).

Assays:
[1] = molecular target: T1, human recombinant trypsin (rh-trypsin) (Homo sapiens, UniProt P07477); assay: Trypsin inhibitory activity, human recombinant trypsin, BZiPAR fluorescent substrate; assay type: biochemical; settings: 30 min at room temperature, read-out: r-h Trypsin inhibitory activity (IC50)
T1 construct: purchased Wako Pure Chemical Industries, Ltd. 206-17171
Experimental: (§1) 1. Confirmation of Trypsin Inhibitory Activity in Humans and Mice In the experiment, human recombinant trypsin (rh-trypsin; manufactured by Wako Pure Chemical Industries, Ltd.), cat. #206-17171) and mouse trypsin (m-trypsin; purified from the mouse small intestine contents by the present inventors) were used. The method for purifying m-trypsin from the contents of the mouse small intestine is shown below. The compound was dissolved in dimethyl sulfoxide (DMSO), and diluted to an arbitrary concentration (A). A was 100-fold diluted with a buffer (0.1 M Tris (pH 8.0), 0.15 M NaCl, 10 mM CaCl2, 0.05% Brij35) (B). The rh-trypsin was diluted with a buffer to 0.088 μg/mL, and for the m-trypsin, the purified fraction liquid was 50-fold diluted with the buffer (C). […] A BZiPAR solution (Rhodamine Reference Substrate) which is substrate for the trypsin enzyme was diluted with the buffer to […] (D). 5 μL of B, 5 μL of C, and 10 μL of D were added to a 384-well plate, and incubated at room temperature for 30 minutes. Fluorescent signals were detected at a maximum excitement (Ex)/fluorescent wavelength (Em)=497 nm/520 nm using a Tecan Safire Fluorometer. […] Based on the obtained inhibitory rates, the trypsin inhibitory activities (IC50 values, nM) were calculated from the non-linear regression.

[2] = system: T2, mouse trypsin (m-trypsin); assay: Trypsin inhibitory activity, mouse trypsin purified from small intestine contents, BZiPAR fluorescent substrate; assay type: biochemical; settings: 30 min at room temperature
T2 construct: mouse trypsin (m-trypsin)
From the text: 1. Confirmation of Trypsin Inhibitory Activity in Humans and Mice
In the experiment, human recombinant trypsin (rh-trypsin; manufactured by Wako Pure Chemical Industries, Ltd.), cat. #206-17171) and mouse trypsin (m-trypsin; purified from the mouse small intestine contents by the present inventors) were used. The method for purifying m-trypsin from the contents of the mouse small intestine is shown below.
The small intestine contents and the gastrointestinal tract obtained from 10 mice were homogenized in phosphate buffer saline (PBS) using Polytron, and subjected to centrifugation several times at 15,000×g for 10 minutes. The supernatant was mixed at 4° C. for 16 hours with a Benzamidine Sepharose 4 Fast Flow Resin (GE Healthcare: #17-5123-10). After washing the resin with PBS, m-trypsin was eluted with a glycine buffer (pH 3.0) to carry out purification. It was confirmed by Western blot analysis that the obtained purified fraction was recognized as an Anti-mouse Trypsin Antibody (Santa Cruz Biotechnology, Inc.: sc-67388). The method for measuring the trypsin inhibiting activity is shown below.
as §1, with “The” for “1. Confirmation of Trypsin Inhibitory Activity in Humans and Mice In the experiment, human recombinant trypsin (rh-trypsin; manufactured by Wako Pure Chemical Industries, Ltd.), cat. #206-17171) and mouse trypsin (m-trypsin; purified from the mouse small intestine contents by the present inventors) were used. The method for purifying m-trypsin from the contents of the mouse small intestine is shown below. The”

ICR mice = assay: Test of increase in fecal protein concentration using mice; assay type: in vivo, mouse; settings: Mus musculus, po, 9 h, 5 mg/kg oral, male ICR mice, feces collected 3 to 9 hours after feeding started, control group = 1; read-out: Fecal protein, Folds (vs. control)
Experimental: 2. Test of Increase in Fecal Protein Concentration Using Mice
For the experiment, 6-week old male ICR mice were used. The experiment was carried out in five mice per group. After fasting the mice for 15 hours, the control group was forcibly orally administered with a 0.5% methyl cellulose (MC) solution, and the test drug group was forcibly orally administered (5 mg/kg) with a solution or suspension obtained by dissolving or suspending the compound in the 0.5% MC solution. The fasting was stopped immediately thereafter, free feeding (CE-2) was started, and then the feces were collected from after 3 hours to after 9 hours, and weighed. All of the obtained feces were suspended in 6 mL of distilled water, and centrifuged at 1,940×g for 10 minutes. The protein concentration in the obtained supernatant was measured by a Bradford method, and the amount of the protein in 1 g of feces was calculated by dividing the protein concentration in the feces by the total weight of feces. Further, the efficacy was investigated from the ratio to the control group. For the compounds that were evaluated multiple times, the average values were calculated.
The results of the activities with an increase in Fecal Protein, assuming a value for the control group as 1, are shown in Table 2.

Wistar rats = assay: Rat uninephrectomy doxorubicin (DXR)-induced nephropathy model (renal function reduced model); assay type: in vivo; settings: 10 mg/kg oral twice daily, week 3, vs control group
Experimental: 3. Test of Rat Uninephrectomy Doxorubicin (DXR)-Induced Nephropathy Model (Renal Function Reduced Model) Uninephrectomy was performed in the left kidney of 10-week old male Wistar rats, and one week later, DXR (5 mg/kg) was administered to the rats via the caudal vein to induce a nephropathy model. The experiment was carried out in ten rats per group. During the period of administering the compound, the rats were fed with diet only in daytime, while fasted in nighttime. A test compound (10 mg/kg) was suspended in a 0.5% methylcellulose (MC) solution from the day after the preparation of the model, and was forcibly orally administered twice (morning and night) daily. To each of a sham (normal) group and a control group, 0.5% MC was forcibly orally administered. At 1, 2, and 3 weeks after the start of administration of the test compound, 24-hour urine collection was each performed to measure the amount of the protein excretion in urine. Blood collection was performed after the end of the urine collection at week 3, and the concentration of creatinine in plasma was measured.

| Structure (SMILES) | IC50 [1] | IC50 [2] | response vs control in vivo at 5 mg/kg (ICR mice) | inhibitory rate of the amount of protein excretion in urine (Wistar rats) | inhibitory rate of the creatinine concentration in plasma (Wistar rats) |
| --- | --- | --- | --- | --- | --- |
| Cl.N=C(N)Nc1ccc(C(=O)Oc2ccc3c(c2)CCCC3CC(=O)N(CC(=O)O)Cc2cccc(C(=O)O)c2)cc1 (centres unmarked) [Example 2, 3-{[({6-[(4-carbamimidamnidobenzoyl)oxy]-1,2,3,4-tetrahydronaphthalen-1-yl}acetyl)(carboxymethyl)amino]methyl}benzoic acid monohydrochloride] | 0.4 nM | 0.51 nM | 255% | about 42% | about 42% |
| C[C@H](C(=O)O)N(Cc1csc(C(=O)O)c1)C(=O)CC1CCc2cc(OC(=O)c3ccc(NC(=N)N)cc3)ccc21 (some centres unmarked) [Example 48] | 0.36 nM | 0.44 nM | 179% | – | – |
| N=C(N)Nc1ccc(C(=O)Oc2ccc3c(C(=O)N(CC(=O)O)Cc4ccc(CC(=O)O)cc4)csc3c2)cc1 [Example 23] | 0.46 nM | 0.46 nM | 253% | – | – |

Now those with a lower IC50 [1], led by results:

| IC50 [1] | IC50 [2] | Structure (SMILES) | response vs control in vivo at 5 mg/kg (ICR mice) | inhibitory rate of the amount of protein excretion in urine (Wistar rats) | inhibitory rate of the creatinine concentration in plasma (Wistar rats) |
| --- | --- | --- | --- | --- | --- |
| 0.23 nM | 0.22 nM | N=C(N)Nc1ccc(C(=O)Oc2ccc3c(c2)CCC(C(=O)N(CC(=O)O)[C@@H](Cc2ccccc2)C(=O)O)C3)cc1 (some centres unmarked) [Example 31] | 151% | – | – |
| 0.21 nM | 0.17 nM | N=C(N)Nc1ccc(C(=O)Oc2ccc3c(C(=O)N(CC(=O)O)Cc4ccc5sc(C(=O)O)cc5c4)cccc3c2)cc1 [Example 34] | 207% | – | – |
